The values that follow come from US6221877A, “Substituted 4-phthalimidocarboxanilides as inhibitors of purine salvage phosphoribosyltransferases” (Regents of the University of California, priority 2000, dated 2001).

The target in one experiment is T1, T. foetus HGXPRT (Tritrichomonas foetus, UniProt P51900).
T1 construct: made in house; host or cells: E. coli strain SØ606 transformed with pBTfprt
T1 sequence (P51900 1-183): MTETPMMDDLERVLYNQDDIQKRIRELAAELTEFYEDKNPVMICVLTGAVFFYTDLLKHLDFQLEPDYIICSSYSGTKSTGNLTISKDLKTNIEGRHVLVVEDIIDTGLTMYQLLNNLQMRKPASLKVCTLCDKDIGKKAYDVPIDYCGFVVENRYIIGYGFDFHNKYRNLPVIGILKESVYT
Put plainly: Spectrophotometric enzyme assay, recombinant T. foetus HGXPRT. Format: biochemical. To be noted: for increase in affinity for T. foetus HGXPRT (lower IC50) compared to compound Ia(1): relative to compound Ia(1); for potency of combined 2-methyl / benzyl-substituted inhibitors relative to parent inhibitors: compared with Ia(4), Ia(5), Ia(6). The protocol:
(§1) Enzyme Assays: Recombinant T. foetus HGXPRT and human HGPRT were isolated from E. coli strain S.O slashed.606, transformed with pBTfprt and pBAcprt expression plasmids, respectively (Chin, et al., Mol. Biochem. Parasitol. 63:221-229 (1994); Kanaaneh, et al., Eur. J. Biochem. 223:595-601 (1994)). Spectrophotometric enzyme assays were performed as described in Yuan, et al., Biochemistry 31:806-810 (1992). The compounds tested were dissolved in DMSO-d6, and concentrations were determined by integration of NMR peaks with methylene chloride as an internal standard. The concentration of DMSO in the assays was kept at 10%.

Experiment [1] relates to T. foetus strain kv1 trophozoites. Kind of experiment: Cell culture assay, in vitro growth of T. foetus. The note with it: for pIC50: Tritrichomonas foetus. It counts as cell-based, Tritrichomonas foetus. The protocol: Cell Culture Assays: T. foetus strain kv1 trophozoites were cultivated in Diamond's TYM medium at 37° C. Cell densities in time samples were determined using a hemocytometer. The concentration of DMSO in culture medium was maintained at or below 1%, which had no apparent effect on cell growth.
Indeed, compound Ia(5)-induced inhibition of T. foetus growth was reversed by increasing the concentration of hypoxanthine in the growth medium. A minimum hypoxanthine concentration between 0.2 and 0.5 mM was required for the survival of the cells challenged with 5 μM of compound Ia(5). Hypoxanthine at concentrations>1 mM essentially abolished any inhibition of cell proliferation under these experimental conditions.

Another experiment concerns the target T2, human HGPRT (Homo sapiens, UniProt P00492).
T2 construct: made in house; host or cells: E. coli strain SØ606 transformed with pBAcprt
T2 sequence (P00492 1-218): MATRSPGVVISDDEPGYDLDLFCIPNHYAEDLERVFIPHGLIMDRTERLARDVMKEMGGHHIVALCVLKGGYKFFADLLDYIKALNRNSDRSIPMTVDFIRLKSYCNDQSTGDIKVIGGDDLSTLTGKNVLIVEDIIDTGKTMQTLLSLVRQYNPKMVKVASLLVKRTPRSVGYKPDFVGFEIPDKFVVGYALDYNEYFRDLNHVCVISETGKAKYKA
Kind of experiment: Spectrophotometric enzyme assay, recombinant human HGPRT. It counts as biochemical. To be noted: for pIC50: Table 2, read-out: IC50, Human HGXPRT; for selectivity for T. foetus HGXPRT over human HGPRT: ratio of human HGPRT to T. foetus HGXPRT inhibition. The protocol:
as §1

[2] abbreviates: Table 1, 10% DMSO, read-out: IC50, Inhibition of T. foetus HGXPRT.
The mark [3] stands for this setting: Table 1, Diamond's TYM medium, 37° C., DMSO at or below 1%, read-out: ED50, in vitro growth of T. foetus.
[4] abbreviates: read-out: IC50 values, T. foetus HGXPRT.

SMILES strings stand for the structures. pIC50, pKi: −log10 of the molar value. Entries after “also recorded” stand apart in the source; their conditions may differ. Like-named read-outs stand apart in the source and are kept apart here.

As to `O=C(Nc1cccc(OCc2cccc(I)c2)c1)c1ccc2c(c1)C(=O)NC2=O` [Ia(9)], the pIC50 at T. foetus HGXPRT (setting [2]) is 5.05.

Consider `CN(Cc1ccccc1NC(=O)c1ccc2c(c1)C(=O)NC2=O)C1CCCCC1` [Ic(1)], for which the pIC50 on T. foetus HGXPRT (setting [2]) was 4.28.

Take `CCN(CC)S(=O)(=O)c1ccc(OC)c(NC(=O)c2ccc3c(c2)C(=O)NC3=O)c1` [Ib(1)]: the results for the pIC50 (in experiment [1] (setting [3]); at T. foetus HGXPRT (setting [2])) were 4.41 and 4.48, respectively.

As to `O=C(Nc1cccc(OCc2cc(Cl)ccc2Cl)c1)c1ccc2c(c1)C(=O)NC2=O` [Ia(14)], the pIC50 at T. foetus HGXPRT (setting [2]) was 5.15.

`O=C(Nc1ccc(Cl)c(Cl)c1)c1ccc2c(c1)C(=O)NC2=O` [(4'-phthalimido)carboxamido-3,4-dichlorobenzene, reference compound]: the “activity on HGXPRT compared with 5-[N-(3,4-dichlorophenyl)carbamoyl]-1,3-isobenzofurandione” value at T. foetus HGXPRT (comparison of the phthalimide with its phthalic anhydride analog) is listed as “equally active”.

As to `O=C(Nc1cccc2c1C(=O)NC2=O)c1ccc2c(c1)C(=O)NC2=O` [Id(1)], the pIC50 at T. foetus HGXPRT (setting [4]) was 5.30.

In the case of `O=C(Nc1cccc(OCc2ccc(Cl)c(Cl)c2)c1)c1ccc2c(c1)C(=O)NC2=O` [Compound Ia(12)], the pIC50 was 5.34 in experiment [1] (setting [3]), 4.62 on human HGPRT and 5.46 on T. foetus HGXPRT (setting [2]). On T. foetus HGXPRT, the “increase in affinity for T. foetus HGXPRT (lower IC50) compared to compound Ia(1)” value was about 5 fold.

Consider `Cc1cc(COc2ccccc2)cc(NC(=O)c2ccc3c(c2)C(=O)NC3=O)c1` [Ia(2), (4'-Phthalimido)Carboxamido-3-Methyl-5-Phenoxymethylbenzene], for which, on T. foetus HGXPRT (setting [2]), the pIC50 is 4.55.

Regarding `Cc1c(NC(=O)c2ccc3c(c2)C(=O)NC3=O)cccc1OCc1ccc(Cl)c(Cl)c1` [Ia(16)], the pIC50 at T. foetus HGXPRT (setting [2]) was 5.03. Further, the “potency of combined 2-methyl / benzyl-substituted inhibitors relative to parent inhibitors” value on T. foetus HGXPRT is recorded as “less potency”.

On to `Cc1c(NC(=O)c2ccc3c(c2)C(=O)NC3=O)cccc1OCc1ccccc1` [Ia(4)], for which the pIC50 in experiment [1] (setting [3]) is 5.41; at human HGPRT it was under 4.30; at T. foetus HGXPRT (setting [2]), 5.52. The “selectivity for T. foetus HGXPRT over human HGPRT” value (shortened to “selectivity for T. foetus HGXPRT”) at human HGPRT is reported as “approximately 100 fold”.

Consider `O=C(Nc1cccc(OCc2c(Cl)cccc2Cl)c1)c1ccc2c(c1)C(=O)NC2=O` [Ia(13)], for which the pIC50 on T. foetus HGXPRT (setting [2]) was 4.92.

As for `O=C(Nc1cccc(OCc2ccccc2I)c1)c1ccc2c(c1)C(=O)NC2=O` [Ia(10)], the pIC50 in experiment [1] (setting [3]) was 5.29; at human HGPRT, under 4.30; at T. foetus HGXPRT (setting [2]), 5.37. Moreover, the “selectivity for T. foetus HGXPRT” value on human HGPRT is “approximately 100 fold”.

Consider `O=C(Nc1cc(OCc2ccccc2)ccc1Cl)c1ccc2c(c1)C(=O)NC2=O` [Ia(3), (4'-Phthalimido)Carboxamido-3-Benzyloxy-6-Chlorobenzene], for which, at T. foetus HGXPRT (setting [2]), the pIC50 is 5.10.

On to `Cc1c(NC(=O)c2ccc3c(c2)C(=O)NC3=O)cccc1OCc1ccc(Br)cc1` [Ia(15)], for which the pIC50 at T. foetus HGXPRT (setting [2]) is 5.28. Besides, on T. foetus HGXPRT, the “potency of combined 2-methyl / benzyl-substituted inhibitors relative to parent inhibitors” value is “less potency”.

As to `COc1cc(COc2cccc(NC(=O)c3ccc4c(c3)C(=O)NC4=O)c2)cc(OC)c1` [Ia(7)], the pIC50 on T. foetus HGXPRT (setting [2]) was 5.09.

With `O=C(Nc1cccc(OCc2ccc(Br)cc2)c1)c1ccc2c(c1)C(=O)NC2=O` [Compound Ia(5), (4'-phthalimido)carboxamido-3-(4-bromobenzyloxy)-benzene], in experiment [1], the “concentration dependence of inhibition of T. foetus growth in culture” value is reported as “concentration-dependent”. The pIC50 in experiment [1] (read-out: ED50, growth of cultured T. foetus cells) is 5.55; on human HGPRT it was 4.35; at T. foetus HGXPRT (setting [2]), 5.82. Moreover, the “hypoxanthine concentration that essentially abolished any inhibition of cell proliferation” value in experiment [1] (cells challenged with 5 μM of compound) is listed as over 1 mM. In addition, the “reversal of growth inhibition by exogenous hypoxanthine” value in experiment [1] (increasing hypoxanthine in the growth medium) is “reversed”. At human HGPRT, the “selectivity for T. foetus HGXPRT” value stood at 30 fold. For the same molecule, the pKi on T. foetus HGXPRT (competitive with respect to guanine, read-out: K (inhibition constant) with respect to guanine, T. foetus HGXPRT) is 6.31. For the same molecule, the “increase in affinity for T. foetus HGXPRT (lower IC50) compared to compound Ia(1)” value on T. foetus HGXPRT was 10 fold. The “mode of inhibition of T. foetus HGXPRT” value on T. foetus HGXPRT (with respect to guanine) is “competitive inhibitor; also recorded: competitive mode of inhibition”.

Regarding `Cc1ccc(COc2cccc(NC(=O)c3ccc4c(c3)C(=O)NC4=O)c2)cc1` [Ia(6)], the pIC50 on T. foetus HGXPRT (setting [2]) was 5.77. In addition, at T. foetus HGXPRT, the “increase in affinity for T. foetus HGXPRT (lower IC50) compared to compound Ia(1)” value came to 10 fold.

`O=C(Nc1cccc(OCc2ccccc2)c1)c1ccc2c(c1)C(=O)NC2=O` [Compound Ia(1)]: the pIC50 in experiment [1] (setting [3]) is 4.72; at T. foetus HGXPRT (setting [4]), 4.80.
